This experiment addresses T1, CYP1A1 (Homo sapiens, UniProt P04798).
T1 sequence (P04798 1-512): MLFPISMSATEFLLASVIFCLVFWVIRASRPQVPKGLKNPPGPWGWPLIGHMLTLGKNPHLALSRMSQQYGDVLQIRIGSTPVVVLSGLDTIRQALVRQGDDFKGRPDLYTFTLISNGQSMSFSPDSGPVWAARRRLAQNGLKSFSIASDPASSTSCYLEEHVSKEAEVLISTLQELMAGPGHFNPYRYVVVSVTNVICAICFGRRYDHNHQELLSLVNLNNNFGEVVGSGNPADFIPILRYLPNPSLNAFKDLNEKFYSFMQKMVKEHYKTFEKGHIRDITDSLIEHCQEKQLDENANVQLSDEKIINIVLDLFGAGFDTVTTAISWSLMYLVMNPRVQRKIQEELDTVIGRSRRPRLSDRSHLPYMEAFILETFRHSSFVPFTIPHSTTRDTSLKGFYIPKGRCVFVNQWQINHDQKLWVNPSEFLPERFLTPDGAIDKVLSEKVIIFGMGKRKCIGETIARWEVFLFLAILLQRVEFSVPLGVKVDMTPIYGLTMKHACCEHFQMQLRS
The experiment in a line: procainamide hydroxylamine. Format: biochemical. Conditions: 20 μM procainamide, NADPH 2 mM, MgCl2 2 mM, 20 mM PBS pH 7.4, 37°C, 30 min.

Take `CCN(CC)CCNC(=O)c1ccc(N)cc1` [I, Procainamide]: the “procainamide hydroxylamine (VI) formation, UPLC-ESI-QTOFMS” value is recorded as “CYP1A1 also had some activity”.

(Values after article PMC3665348 (Biochemical pharmacology, 2012).)
